The values that follow come from ChEMBL document CHEMBL3045590, “Design, synthesis, bioactivity, and structure-activity relationship (SAR) studies of novel benzoylphenylureas containing oxime ether group” (2008).

Type in all cases: functional
In experiment [1] the test system is Culex pipiens pallens. Nature of the experiment: Larvicidal activity against fourth-instar larval stage of Culex pipiens pallens (mosquito) assessed as mortality at 0.25 mg/l at 25 +/-1 degC after 8 days. To be noted: 192 h.
Experiment [2] has as its system Mythimna separata. Nature of the experiment: Ratio of Hexaflumuron LC50 to compound LC50 for fourth-instar larval stage of Mythimna separata (Oriental armyworm) measured after 4 days.
For experiment [3], the system named is Mythimna separata. Nature of the experiment: Larvicidal activity against fourth-instar larval stage of Mythimna separata (Oriental armyworm) in compound-pretreated corn leaves assessed as mortality at 0.5 mg/l at 25 +/-1 degC after 4 days.
The subject of experiment [4] is Cucumis sativus. Nature of the experiment: Growth regulation of Cucumis sativus (cucumber) seeds assessed as stimulation of radicle growth at 10 mg/l at 26 degC after 5 days.
The test system of experiment [5] is Culex pipiens pallens. Kind of experiment: Larvicidal activity against fourth-instar larval stage of Culex pipiens pallens (mosquito) assessed as mortality at 0.1 mg/l at 25 +/-1 degC after 8 days. To be noted: 192 h.
In experiment [6] the test system is Culex pipiens pallens. Nature of the experiment: Larvicidal activity against fourth-instar larval stage of Culex pipiens pallens (mosquito) assessed as mortality at 0.01 mg/l at 25 +/-1 degC after 8 days. The following applies: 192 h.
The test system of experiment [7] is Culex pipiens pallens. Nature of the experiment: Larvicidal activity against fourth-instar larval stage of Culex pipiens pallens (mosquito) assessed as mortality at 0.05 mg/l at 25 +/-1 degC after 8 days. The following applies: 192 h.
In experiment [8] the test system is Mythimna separata. Nature of the experiment: Ratio of Flucycloxuron LC50 to compound LC50 for fourth-instar larval stage of Mythimna separata (Oriental armyworm) measured after 4 days.
For experiment [9], the system named is Mythimna separata. Kind of experiment: Larvicidal activity against fourth-instar larval stage of Mythimna separata (Oriental armyworm) in compound-pretreated corn leaves assessed as mortality at 25 +/-1 degC after 4 days.
Experiment [10] concerns Culex pipiens pallens. Nature of the experiment: Larvicidal activity against fourth-instar larval stage of Culex pipiens pallens (mosquito) assessed as mortality at 0.5 mg/l at 25 +/-1 degC after 8 days. The following applies: 192 h.
The subject of experiment [11] is Culex pipiens pallens. Kind of experiment: Larvicidal activity against fourth-instar larval stage of Culex pipiens pallens (mosquito) assessed as mortality at 0.025 mg/l at 25 +/-1 degC after 8 days. To be noted: 192 h.
Experiment [12] has as its system Mythimna separata. Nature of the experiment: Larvicidal activity against fourth-instar larval stage of Mythimna separata (Oriental armyworm) in compound-pretreated corn leaves assessed as mortality at 0.25 mg/l at 25 +/-1 degC after 4 days.
In experiment [13] the test system is Mythimna separata. Nature of the experiment: Larvicidal activity against fourth-instar larval stage of Mythimna separata (Oriental armyworm) in compound-pretreated corn leaves assessed as mortality at 1 mg/l at 25 +/-1 degC after 4 days.
The test system of experiment [14] is Mythimna separata. Nature of the experiment: Larvicidal activity against fourth-instar larval stage of Mythimna separata (Oriental armyworm) in compound-pretreated corn leaves assessed as mortality at 2.5 mg/l at 25 +/-1 degC after 4 days.
In experiment [15] the test system is Culex pipiens pallens. Nature of the experiment: Larvicidal activity against fourth-instar larval stage of Culex pipiens pallens (mosquito) assessed as mortality at 1 mg/l at 25 +/-1 degC after 8 days. To be noted: 192 h.
Experiment [16] relates to Culex pipiens pallens. Nature of the experiment: Larvicidal activity against fourth-instar larval stage of Culex pipiens pallens (mosquito) assessed as mortality at 0.0025 mg/l at 25 +/-1 degC after 8 days. The following applies: 192 h.
Experiment [17] deals with Culex pipiens pallens. Nature of the experiment: Larvicidal activity against fourth-instar larval stage of Culex pipiens pallens (mosquito) assessed as mortality at 0.001 mg/l at 25 +/-1 degC after 8 days. The following applies: 192 h.
Experiment [18] deals with Culex pipiens pallens. Nature of the experiment: Larvicidal activity against fourth-instar larval stage of Culex pipiens pallens (mosquito) assessed as mortality at 0.005 mg/l at 25 +/-1 degC after 8 days. The following applies: 192 h.
Experiment [19] concerns Culex pipiens pallens. Kind of experiment: Larvicidal activity against fourth-instar larval stage of Culex pipiens pallens (mosquito) assessed as mortality at 0.0005 mg/l at 25 +/-1 degC after 8 days. To be noted: 192 h.
In experiment [20] the test system is Mythimna separata. Nature of the experiment: Larvicidal activity against fourth-instar larval stage of Mythimna separata (Oriental armyworm) in compound-pretreated corn leaves assessed as mortality at 10 mg/l at 25 +/-1 degC after 4 days.
Experiment [21] has as its system Mythimna separata. Nature of the experiment: Larvicidal activity against fourth-instar larval stage of Mythimna separata (Oriental armyworm) in compound-pretreated corn leaves assessed as mortality at 5 mg/l at 25 +/-1 degC after 4 days.
The test system of experiment [22] is Culex pipiens pallens. Nature of the experiment: Ratio of larvicidal activity of compound to larvicidal activity of Flucycloxuron for fourth-instar larval stage of Culex pipiens pallens (mosquito) measured after 8 days.
Experiment [23] relates to Mythimna separata. Kind of experiment: Larvicidal activity against fourth-instar larval stage of Mythimna separata (Oriental armyworm) in compound-pretreated corn leaves assessed as mortality at 25 mg/l at 25 +/-1 degC after 4 days.
Experiment [24] deals with Culex pipiens pallens. Kind of experiment: Larvicidal activity against fourth-instar larval stage of Culex pipiens pallens (mosquito) assessed as mortality at 0.00025 mg/l at 25 +/-1 degC after 8 days. To be noted: 192 h.
The test system of experiment [25] is Mythimna separata. Nature of the experiment: Larvicidal activity against fourth-instar larval stage of Mythimna separata (Oriental armyworm) in compound-pretreated corn leaves assessed as mortality at 0.125 mg/l at 25 +/-1 degC after 4 days.

≈ marks a conversion by molar mass, not a printed value.

Take `CC(C)O/N=C/c1ccc(NC(=O)NC(=O)c2c(F)cccc2F)cc1`: the mortality (commonly the share of the test organisms that died) at 0.25 µg/mL in [1] was 100%; in experiment [12], 0%. Besides, the RatioLC50 is 9.4 in experiment [2] and 5 in experiment [8]. Also, the mortality at 0.5 µg/mL was 50% in experiment [3] and 100% in [10]. Besides, the Activity in [4] amounted to 55%. Also, in experiment [5], the mortality at 0.1 µg/mL came to 100%. The mortality at 0.01 µg/mL in [6] was 100%. For the same compound, the mortality at 0.05 µg/mL in [7] turned out to be 100%. Also, the LC50 – broadly, the concentration that kills 50% of the test population – in experiment [9] stood at 0.5 µg/mL (≈ 1.38 µM). Moreover, the mortality at 0.025 µg/mL in experiment [11] was found to be 100%. The mortality at 1 µg/mL in experiment [13] and in experiment [15] was 100% in each case. Besides, the mortality at 2.5 µg/mL in experiment [14] stood at 100%. In addition, the mortality at 0.0025 µg/mL in experiment [16] came to 15%. Also, in [17], the mortality at 0.001 µg/mL was determined as 0%. For the same compound, the mortality at 0.005 µg/mL in experiment [18] was found to be 75%.
Turning to `CC(C)(C)O/N=C/c1ccc(NC(=O)NC(=O)c2c(F)cccc2F)cc1`, the mortality at 0.5 µg/mL in experiment [3] stood at 85%. Also, in experiment [19], the mortality at 0.0005 µg/mL was 20%. The mortality at 0.1 µg/mL in [5] amounted to 100%. For the same compound, the mortality at 0.01 µg/mL in experiment [6] worked out at 100%. The mortality at 0.05 µg/mL in [7] came out at 100%. Besides, the RatioLC50 in experiment [8] amounted to 5; in experiment [22], 10. In addition, the mortality at 0.025 µg/mL in experiment [11] turned out to be 100%. Besides, in experiment [20], the mortality at 10 µg/mL worked out at 100%. Besides, the mortality at 0.25 µg/mL in [12] was determined as 0%. In addition, in experiment [13], the mortality at 1 µg/mL came out at 100%. For the same compound, in experiment [21], the mortality at 5 µg/mL was found to be 100%. Further, the mortality at 2.5 µg/mL in [14] was found to be 100%. Further, in experiment [16], the mortality at 0.0025 µg/mL is 90%. Further, in [17], the mortality at 0.001 µg/mL is 70%. Also, the mortality at 0.005 µg/mL in [18] was found to be 100%. Also, the mortality at 25 µg/mL in [23] is 100%.
In the case of `O=C(NC(=O)c1c(F)cccc1F)Nc1ccc(/C=N/OC(C(F)(F)F)C(F)(F)F)cc1`, in experiment [3], the mortality at 0.5 µg/mL stood at 40%. Moreover, in experiment [19], the mortality at 0.0005 µg/mL was determined as 60%. The mortality at 0.1 µg/mL in [5] turned out to be 100%. Further, the mortality at 0.01 µg/mL in experiment [6] stood at 100%. Besides, the mortality at 0.05 µg/mL in [7] was 100%. Also, the mortality at 0.025 µg/mL in [11] worked out at 100%. For the same compound, the mortality at 10 µg/mL in experiment [20] came out at 100%. Besides, the mortality at 0.25 µg/mL in experiment [12] was 0%. In addition, the mortality at 1 µg/mL in experiment [13] was determined as 90%. Further, the mortality at 5 µg/mL in experiment [21] is 100%. In addition, in experiment [22], the RatioLC50 was 10. For the same compound, in experiment [14], the mortality at 2.5 µg/mL worked out at 100%. The mortality at 0.0025 µg/mL in experiment [16] turned out to be 100%. Also, the mortality at 0.001 µg/mL in experiment [17] was 90%. For the same compound, the mortality at 0.005 µg/mL in [18] is 100%. Also, the mortality at 25 µg/mL in [23] was found to be 100%. The mortality at 0.00025 µg/mL in [24] is 30%.
On to `CC1CCC(C(C)C)C(O/N=C/c2ccc(NC(=O)NC(=O)c3c(F)cccc3F)cc2)C1` (stereo unspecified), for which the mortality at 0.5 µg/mL in [3] worked out at 40%. In addition, the mortality at 0.0005 µg/mL in experiment [19] amounted to 10%. The mortality at 0.01 µg/mL in experiment [6] was 100%. Also, in experiment [25], the mortality at 0.125 µg/mL came out at 0%. The mortality at 10 µg/mL in experiment [20] is 100%. Further, the mortality at 0.25 µg/mL in [12] was found to be 10%. Also, the mortality at 1 µg/mL in experiment [13] came out at 80%. The mortality at 5 µg/mL in experiment [21] amounted to 100%. Also, the RatioLC50 in [22] came to 10. In addition, in experiment [14], the mortality at 2.5 µg/mL was determined as 100%. In addition, the mortality at 0.0025 µg/mL in experiment [16] was found to be 100%. The mortality at 0.001 µg/mL in experiment [17] stood at 80%. For the same compound, the mortality at 0.005 µg/mL in experiment [18] stood at 100%. Further, the mortality at 25 µg/mL in experiment [23] was 100%.
With `O=C(NC(=O)c1c(F)cccc1F)Nc1ccc(/C=N/OCC(F)(F)F)cc1`, in experiment [3], the mortality at 0.5 µg/mL was found to be 60%. For the same compound, in experiment [5], the mortality at 0.1 µg/mL was 100%. The mortality at 0.01 µg/mL in experiment [6] worked out at 100%. For the same compound, the mortality at 0.05 µg/mL in [7] was determined as 100%. Moreover, the mortality at 0.025 µg/mL in [11] came to 100%. For the same compound, the mortality at 10 µg/mL in [20] was 100%. Further, the mortality at 0.25 µg/mL in experiment [12] turned out to be 0%. The mortality at 1 µg/mL in [13] turned out to be 90%. In addition, in experiment [21], the mortality at 5 µg/mL came to 100%. The RatioLC50 in [22] was found to be 10. The mortality at 2.5 µg/mL in experiment [14] was 100%. Also, the mortality at 0.0025 µg/mL in experiment [16] was 70%. Also, the mortality at 0.001 µg/mL in experiment [17] amounted to 10%. In addition, the mortality at 0.005 µg/mL in experiment [18] was 100%. Besides, the mortality at 25 µg/mL in experiment [23] came out at 100%.
